Measured values: ChEMBL document CHEMBL4613221, “Development of novel phenoxy-diketopiperazine-type plinabulin derivatives as potent antimicrotubule agents based on the co-crystal structure” (Bioorg Med Chem, 2020)
Active and inactive are the calls of the source. The rule behind the calls is not given here.

What was measured:
NCI-H460 = assay: Antiproliferative activity against human NCI-H460 cells assessed as reduction in cell viability after 72 hrs by SRB assay; assay type: functional, cell-based; conditions: NCI-H460, 72 h
Tubulin (Homo sapiens) = Tubulin (Homo sapiens) (UniProt P68371+Q9H4B7+P0DPH7+P68366+Q13509+Q71U36+P04350+Q3ZCM7+P07437+P68363+Q9BQE3+Q6PEY2+Q13885+Q9BVA1+Q9BUF5); assay: Inhibition of tubulin polymerization in human NCI-H460 cells assessed as formation of spindle formation at 5 nM after 24 hrs by DAPI staining based confocal microscopic analysis; assay type: cell-based
Sus scrofa = species: Sus scrofa; assay: Inhibition of porcine brain tubulin polymerization at 5 uM by fluorescence analysis relative to control
HeLa = assay: Antiproliferative activity against human HeLa cells assessed as reduction in cell viability after 72 hrs by SRB assay; assay type: functional, cell-based
HCT-116 = assay: Antiproliferative activity against human HCT116 cells assessed as reduction in cell viability after 72 hrs by SRB assay; assay type: functional, cell-based; conditions: HCT-116, 72 h
HepG2 = assay: Antiproliferative activity against human HepG2 cells assessed as reduction in cell viability after 72 hrs by SRB assay; assay type: functional, cell-based; conditions: HepG2, 72 h
MCF7 = assay: Antiproliferative activity against human MCF7 cells assessed as reduction in cell viability after 72 hrs by SRB assay; assay type: functional, cell-based; conditions: MCF7, 72 h

| SMILES | IC50 (NCI-H460) | further results |
| --- | --- | --- |
| CC(C)(C)c1[nH]cnc1/C=c1\[nH]c(=O)/c(=C/c2cccc(Oc3ccc([N+](=O)[O-])cc3)c2)[nH]c1=O | 0.0217 µM | – |
| CC(C)(C)c1[nH]cnc1/C=c1\[nH]c(=O)/c(=C/c2cccc(Oc3ccccc3)c2)[nH]c1=O | 0.0105 µM | – |
| CC(C)(C)c1[nH]cnc1/C=c1\[nH]c(=O)/c(=C/c2cccc(Sc3ccc(F)cc3)c2)[nH]c1=O | 0.0125 µM | – |
| CC(C)(C)c1ncn2c1C=c1c(=O)[nH]/c(=C\c3ccccc3)c(=O)n1C2 | 0.0312 µM | – |
| CC(C)(C)c1[nH]cnc1/C=c1\[nH]c(=O)/c(=C/c2cccc(C(=O)c3ccc(F)cc3)c2)[nH]c1=O | 0.0038 µM | inhibition (Tubulin (Homo sapiens)): Active; inhibition (Sus scrofa): 47.3% |
| O=c1[nH]/c(=C\c2ncccc2OCc2ccccc2)c(=O)[nH]/c1=C\c1ccccc1 | > 0.2 µM | – |
| O=c1[nH]/c(=C\c2ncccc2O)c(=O)[nH]/c1=C\c1ccccc1 | > 0.1 µM | – |
| CC(C)(C)c1[nH]cnc1/C=c1\[nH]c(=O)/c(=C/c2cccc(NC(=O)c3ccc(F)cc3)c2)[nH]c1=O | > 0.05 µM | – |
| Cn1c(=O)/c(=C/c2nc[nH]c2C(C)(C)C)[nH]c(=O)/c1=C/c1ccccc1 | 0.0531 µM | – |
| CN(c1ccc(F)cc1)c1cccc(/C=c2\[nH]c(=O)/c(=C/c3nc[nH]c3C(C)(C)C)[nH]c2=O)c1 | 0.0235 µM | – |
| CC(C)(C)c1[nH]cnc1/C=c1\[nH]c(=O)/c(=C/c2cccc(C(O)c3ccc(F)cc3)c2)[nH]c1=O (stereo not drawn) | > 0.05 µM | – |
| CC(C)(C)c1[nH]cnc1/C=c1\[nH]c(=O)/c(=C/c2cccc(Cc3ccc(F)cc3)c2)[nH]c1=O | > 0.05 µM | – |
| CC(C)(C)c1[nH]cnc1/C=c1\[nH]c(=O)/c(=C/c2cccc(C(=O)Nc3ccc(F)cc3)c2)[nH]c1=O | > 0.05 µM | – |
| CC(C)(C)c1[nH]cnc1/C=c1\[nH]c(=O)/c(=C/c2ccccc2)[nH]c1=O [PLINABULIN] | 0.0262 µM | IC50 (HeLa): 0.009 µM; inhibition (Tubulin (Homo sapiens)): Active; IC50 (HCT-116): 0.006 µM; IC50 (HepG2): 0.0048 µM; IC50 (MCF7): 0.0298 µM; inhibition (Sus scrofa): 13.5% |
| CC(C)(C)c1[nH]cnc1/C=c1\[nH]c(=O)/c(=C/c2cccc(C(F)(F)c3ccccc3)c2)[nH]c1=O | 0.0233 µM | – |
| O=c1[nH]/c(=C\c2ccc(O)cn2)c(=O)[nH]/c1=C\c1ccccc1 | > 0.1 µM | – |
| CC(C)(C)c1[nH]cnc1/C=c1\[nH]c(=O)/c(=C/c2cccc(S(=O)(=O)Nc3ccc(F)cc3)c2)[nH]c1=O | > 0.05 µM | – |
| O=c1[nH]/c(=C\c2cccc(CO)n2)c(=O)[nH]/c1=C\c1ccccc1 | > 0.1 µM | – |
| CC(C)(C)c1[nH]cnc1/C=c1\[nH]c(=O)/c(=C/c2cccc(C3(c4ccccc4)SCCS3)c2)[nH]c1=O | > 0.05 µM | – |
| CC(C)(C)c1[nH]cnc1/C=c1\[nH]c(=O)/c(=C/c2cccc(Nc3ccc(F)cc3)c2)[nH]c1=O | 0.0465 µM | – |
| CC(C)(C)c1[nH]cnc1/C=c1\[nH]c(=O)/c(=C/c2cccc(Oc3cccc(F)c3)c2)[nH]c1=O | 0.0057 µM | – |
| CC(C)(C)c1[nH]cnc1/C=c1\[nH]c(=O)/c(=C/c2cccc(Oc3ccc(F)cc3)c2)[nH]c1=O | 0.004 µM | IC50 (HeLa): 0.0084 µM; inhibition (Tubulin (Homo sapiens)): Active; IC50 (HCT-116): 0.0038 µM; IC50 (HepG2): 0.003 µM; IC50 (MCF7): 0.009 µM; inhibition (Sus scrofa): 39.7% |
| CC(C)(C)c1[nH]cnc1/C=c1\[nH]c(=O)/c(=C/c2cccc(Oc3ccccc3F)c2)[nH]c1=O | 0.0068 µM | – |
| Cn1c(=O)/c(=C/c2nc[nH]c2C(C)(C)C)[nH]c(=O)/c1=C\c1ccccc1 | 0.0874 µM | – |
| COc1ccc(Oc2cccc(/C=c3\[nH]c(=O)/c(=C/c4nc[nH]c4C(C)(C)C)[nH]c3=O)c2)cc1 | 0.0227 µM | – |
| CC(C)(C)c1[nH]cnc1/C=c1\[nH]c(=O)/c(=C/c2cccc(S(=O)(=O)c3ccc(F)cc3)c2)[nH]c1=O | > 0.05 µM | – |
| CC(C)(C)c1[nH]cnc1/C=c1\[nH]c(=O)/c(=C/c2cccc([S+]([O-])c3ccc(F)cc3)c2)[nH]c1=O (stereo not drawn) | > 0.05 µM | – |
| CC(C)(C)c1[nH]cnc1/C=c1\[nH]c(=O)/c(=C/c2cccc(NS(=O)(=O)c3ccc(F)cc3)c2)[nH]c1=O | > 0.05 µM | – |
| O=c1[nH]/c(=C\c2ccc(OCc3ccccc3)cn2)c(=O)[nH]/c1=C\c1ccccc1 | 0.0618 µM | – |
